Read-outs that look alike come from different tables or passages of the source. Numbered stars: 1 amine (or outer) side, 2 acyl side, 3 side chain; on linkers, the order of the positions; unused ones are H or OH. Bridge positions count the residues as written; N and C are the ends. Square brackets hold non-standard residues; d marks the D form. Ends that are not written are not given here. Peptide text beside a SMILES is read from it. mXylylene = c1cc(C[*:1])cc(C[*:2])c1; Phg = N[C@H](C(=O)O)c1ccccc1; Tle = CC(C)(C)[C@H](N)C(=O)O; NMeS = CN[C@@H](CO)C(=O)O; Nva = CCC[C@H](N)C(=O)O
What was measured:
Assay type in all cases: biochemical
human plasma kallikrein = target: T1, human plasma kallikrein (Homo sapiens, UniProt P03952); experiment: Enzyme inhibition assay (fluorogenic substrate H-Pro-Phe-Arg-AMC)
T1 construct: purchased Enzyme Research Laboratories HPKa 1303
T1 sequence (P03952 20-390 limits assumed): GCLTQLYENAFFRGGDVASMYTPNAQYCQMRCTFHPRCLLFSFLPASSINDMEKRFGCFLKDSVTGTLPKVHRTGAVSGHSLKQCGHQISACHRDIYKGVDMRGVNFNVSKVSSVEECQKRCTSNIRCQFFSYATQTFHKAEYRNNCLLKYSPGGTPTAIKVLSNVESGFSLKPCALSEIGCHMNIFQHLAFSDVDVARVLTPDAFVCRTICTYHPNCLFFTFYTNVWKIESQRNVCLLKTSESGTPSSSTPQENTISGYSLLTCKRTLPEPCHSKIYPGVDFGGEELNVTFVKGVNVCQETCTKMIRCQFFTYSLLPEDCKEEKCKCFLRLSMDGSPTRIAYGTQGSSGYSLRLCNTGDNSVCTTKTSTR
T1 sequence (P03952 391-638 limits assumed): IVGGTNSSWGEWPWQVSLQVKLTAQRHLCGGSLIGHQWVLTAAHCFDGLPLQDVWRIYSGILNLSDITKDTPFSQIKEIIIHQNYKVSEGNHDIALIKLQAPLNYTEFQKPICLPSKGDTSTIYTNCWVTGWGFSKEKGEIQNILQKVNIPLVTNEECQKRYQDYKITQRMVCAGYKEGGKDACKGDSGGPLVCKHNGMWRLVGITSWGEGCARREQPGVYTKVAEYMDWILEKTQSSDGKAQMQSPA
Procedure, shortened: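 Activated enzyme (1 nM final) was preincubated 5 min at room temperature with peptides in 10-point 8-fold dilutions. The buffer was 50 mM Tris-HCl pH 7.2, 150 mM NaCl, 10 mM CaCl2, 0.05% Brij-35. After 1 h at room temperature with 500 μM substrate (final), fluorescence was read at 360/460 nm to derive IC50.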

Factor VIIa = target: T2, Factor VIIa (Homo sapiens, UniProt P08709); experiment: Inhibitor specificity IC50 assay, Factor VIIa (Boc-Val-Pro-Arg-AMC); conditions: substrate Boc-Val-Pro-Arg-AMC
T2 construct: Factor VIIa (Enzyme Research Laboratories, South Bend, Ind.); purchased Enzyme Research Laboratories
T2 sequence (P08709 61-212 limits assumed): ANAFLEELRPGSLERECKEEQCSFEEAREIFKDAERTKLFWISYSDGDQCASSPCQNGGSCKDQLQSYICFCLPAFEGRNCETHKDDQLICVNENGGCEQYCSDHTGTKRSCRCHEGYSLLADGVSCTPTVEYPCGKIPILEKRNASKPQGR
T2 sequence (P08709 213-466 limits assumed): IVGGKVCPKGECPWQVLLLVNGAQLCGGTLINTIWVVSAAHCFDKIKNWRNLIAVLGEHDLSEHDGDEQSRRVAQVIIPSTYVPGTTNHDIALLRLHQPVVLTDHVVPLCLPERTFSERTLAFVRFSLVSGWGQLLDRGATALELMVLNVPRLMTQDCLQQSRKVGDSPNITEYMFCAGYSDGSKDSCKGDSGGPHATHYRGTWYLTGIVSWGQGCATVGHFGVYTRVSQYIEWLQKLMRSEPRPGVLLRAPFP
Procedure: (§1) Ten 8-fold serial dilutions of peptides (10 mM DMSO stocks) were performed in DMSO and then added to TCNB (50 mM Tris-HCl pH 7.2, 150 mM NaCl, 10 mM CaCl2, 0.05% Brij-35) and sonicated. 50 μL of the peptide dilutions were added to microtitre plates (96 well, black non-binding surface, Corning, 3650) and incubated for 5 minutes at room temperature with 4 nM activated human kallikrein (final concentration after addition of fluorogenic substrate: 1 nM). The samples were then incubated for 1 hour at room temperature with 2 mM H-Pro-Phe-Arg-AMC (final concentration 500 μM). Relative Fluorescence Units (RFU) were measured at excitation/emission 360 nm/460 nm by a SpectraMax M3.
(§2) To determine the specificity of peptide inhibitors, an IC50 assay, as described in Example 4, was performed on a variety of serine proteases related to human plasma kallikrein. The enzymes tested include mouse plasma kallikrein (R&D Systems, Minneapolis, Minn.), and the human enzymes Factor VIIa (Enzyme Research Laboratories, South Bend, Ind.), Factor Xa (Enzyme Research Laboratories, South Bend, Ind.), Factor XIa (Enzyme Research Laboratories, South Bend, Ind.), Factor XIIa (Enzyme Research Laboratories, South Bend, Ind.), tissue kallikrein KLK13 (R&D Systems, Minneapolis, Minn.), thrombin (Enzyme Research Laboratories, South Bend, Ind.) and plasmin (Enzyme Research Laboratories, South Bend, Ind.).
(§3) Each enzyme was tested with the following specific fluorgenic substrates (available from Bachem; Torrance, Calif.): mouse plasma kallikrein (Pro-Phe-Arg-AMC), Factor VIIa (Boc-Val-Pro-Arg-AMC), Factor Xa (Boc-Gln-Gly-Arg-AMC), Factor XIa (Boc-Gln-Gly-Arg-AMC), Factor XIIa (Boc-Gln-Gly-Arg-AMC), KLK13 (Boc-Val-Pro-Arg-AMC), thrombin (Boc-Val-Pro-Arg-AMC) and plasmin (Boc-Val-Leu-Lys-AMC). Peptide inhibitors R2006, R2010, R2012, R2019, R2023, R2030, R2036, R2041, R2047, R2104 and R2051 were assayed.

Factor Xa = target: T3, Factor Xa (Homo sapiens, UniProt P00742); experiment: Inhibitor specificity IC50 assay, Factor Xa (Boc-Gln-Gly-Arg-AMC); conditions: substrate Boc-Gln-Gly-Arg-AMC
T3 construct: Factor Xa (Enzyme Research Laboratories, South Bend, Ind.); purchased Enzyme Research Laboratories
T3 sequence (P00742 41-179 limits assumed): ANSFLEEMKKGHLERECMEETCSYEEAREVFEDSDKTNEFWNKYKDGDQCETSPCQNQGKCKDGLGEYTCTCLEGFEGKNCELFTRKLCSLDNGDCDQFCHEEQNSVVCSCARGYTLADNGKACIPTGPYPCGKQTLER
T3 sequence (P00742 235-488 limits assumed): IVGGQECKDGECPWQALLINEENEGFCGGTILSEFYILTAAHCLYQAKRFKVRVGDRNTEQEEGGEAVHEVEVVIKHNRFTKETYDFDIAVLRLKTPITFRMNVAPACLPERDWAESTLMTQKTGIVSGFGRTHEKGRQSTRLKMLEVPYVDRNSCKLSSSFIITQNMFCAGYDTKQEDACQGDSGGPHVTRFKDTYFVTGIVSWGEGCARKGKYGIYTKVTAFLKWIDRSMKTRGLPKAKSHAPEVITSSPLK
Procedure: (§4) Activated human plasma kallikrein (Enzyme Research Laboratories, HPKa 1303) was reacted with H-Pro-Phe-Arg-7-amido-4-methylcoumarin (H-Pro-Pre-Arg-AMC) (a fluorogenic substrate for plasma as well as pancreatic and urinary kallikreins; Bachem I-1295) and candidate inhibitory peptides to determine the IC50 of the inhibitor.
as §1, §2, §3

Factor XIa = target: T4, Factor XIa (Homo sapiens, UniProt P03951); experiment: Inhibitor specificity IC50 assay, Factor XIa (Boc-Gln-Gly-Arg-AMC); conditions: substrate Boc-Gln-Gly-Arg-AMC
T4 construct: Factor XIa (Enzyme Research Laboratories, South Bend, Ind.); purchased Enzyme Research Laboratories
T4 sequence (P03951 19-387 limits assumed): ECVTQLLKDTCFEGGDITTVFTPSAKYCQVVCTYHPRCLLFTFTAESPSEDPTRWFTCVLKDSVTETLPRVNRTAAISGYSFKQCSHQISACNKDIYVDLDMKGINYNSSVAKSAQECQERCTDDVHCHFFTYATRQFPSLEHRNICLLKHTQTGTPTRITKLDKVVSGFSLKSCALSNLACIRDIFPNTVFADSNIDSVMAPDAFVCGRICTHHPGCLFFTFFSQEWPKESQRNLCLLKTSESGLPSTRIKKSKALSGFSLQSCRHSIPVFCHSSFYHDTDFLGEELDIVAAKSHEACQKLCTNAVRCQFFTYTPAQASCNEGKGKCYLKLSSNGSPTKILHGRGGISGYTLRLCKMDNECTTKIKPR
T4 sequence (P03951 388-625 limits assumed): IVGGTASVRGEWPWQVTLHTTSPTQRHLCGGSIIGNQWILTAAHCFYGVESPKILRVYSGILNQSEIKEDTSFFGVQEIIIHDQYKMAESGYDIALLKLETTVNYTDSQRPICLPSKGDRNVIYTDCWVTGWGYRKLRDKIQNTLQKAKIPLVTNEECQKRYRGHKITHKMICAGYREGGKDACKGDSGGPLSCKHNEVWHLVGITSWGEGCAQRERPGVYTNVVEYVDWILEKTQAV
Procedure: as §4, §1, §2, §3

Factor XIIa = target: T5, Factor XIIa (Homo sapiens, UniProt P00748); experiment: Inhibitor specificity IC50 assay, Factor XIIa (Boc-Gln-Gly-Arg-AMC); conditions: substrate Boc-Gln-Gly-Arg-AMC
T5 construct: Factor XIIa (Enzyme Research Laboratories, South Bend, Ind.); purchased Enzyme Research Laboratories
T5 sequence (P00748 373-615 limits assumed): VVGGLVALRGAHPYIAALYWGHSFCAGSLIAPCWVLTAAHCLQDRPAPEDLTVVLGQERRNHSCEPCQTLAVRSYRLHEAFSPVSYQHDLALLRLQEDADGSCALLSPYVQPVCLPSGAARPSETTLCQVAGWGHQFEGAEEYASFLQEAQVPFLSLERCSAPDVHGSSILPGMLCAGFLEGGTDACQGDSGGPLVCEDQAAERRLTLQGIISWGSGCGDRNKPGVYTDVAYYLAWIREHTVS
Procedure: as §4, §1, §2, §3

tissue kallikrein KLK13 = target: T6, tissue kallikrein KLK13 (Homo sapiens, UniProt Q9UKR3); experiment: Inhibitor specificity IC50 assay, KLK13 (Boc-Val-Pro-Arg-AMC); conditions: substrate Boc-Val-Pro-Arg-AMC
T6 construct: purchased R&D Systems
T6 sequence (Q9UKR3 17-277): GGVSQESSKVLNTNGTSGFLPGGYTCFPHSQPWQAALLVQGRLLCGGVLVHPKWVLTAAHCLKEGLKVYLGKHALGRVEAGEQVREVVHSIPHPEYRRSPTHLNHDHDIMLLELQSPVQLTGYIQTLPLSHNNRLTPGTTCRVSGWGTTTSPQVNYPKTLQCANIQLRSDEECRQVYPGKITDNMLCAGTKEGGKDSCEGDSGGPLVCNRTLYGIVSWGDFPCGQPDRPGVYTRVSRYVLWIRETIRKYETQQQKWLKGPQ
Procedure: as §4, §1, §2, §3

thrombin = target: T7, thrombin (Homo sapiens, UniProt P00734); experiment: Inhibitor specificity IC50 assay, thrombin (Boc-Val-Pro-Arg-AMC); conditions: substrate Boc-Val-Pro-Arg-AMC
T7 construct: thrombin (Enzyme Research Laboratories, South Bend, Ind.); purchased Enzyme Research Laboratories
Procedure: as §4, §1, §2, §3

plasmin = target: T8, plasmin (Homo sapiens, UniProt P00747); experiment: Inhibitor specificity IC50 assay, plasmin (Boc-Val-Leu-Lys-AMC); conditions: substrate Boc-Val-Leu-Lys-AMC
T8 construct: plasmin (Enzyme Research Laboratories, South Bend, Ind.); purchased Enzyme Research Laboratories
T8 sequence (P00747 97-580 limits assumed): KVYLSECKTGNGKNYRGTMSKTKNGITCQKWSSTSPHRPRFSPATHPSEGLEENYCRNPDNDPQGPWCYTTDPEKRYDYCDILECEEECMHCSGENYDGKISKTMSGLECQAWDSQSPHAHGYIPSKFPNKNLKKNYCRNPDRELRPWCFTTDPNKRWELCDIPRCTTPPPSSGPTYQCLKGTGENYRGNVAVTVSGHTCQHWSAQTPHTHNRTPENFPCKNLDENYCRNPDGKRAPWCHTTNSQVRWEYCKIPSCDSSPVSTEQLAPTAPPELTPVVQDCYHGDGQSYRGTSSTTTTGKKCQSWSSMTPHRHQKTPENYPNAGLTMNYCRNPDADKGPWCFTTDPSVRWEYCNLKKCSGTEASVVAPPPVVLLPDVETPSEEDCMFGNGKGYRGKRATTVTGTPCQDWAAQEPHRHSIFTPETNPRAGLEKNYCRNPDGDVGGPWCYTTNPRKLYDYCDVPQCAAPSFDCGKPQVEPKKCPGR
T8 sequence (P00747 581-810 limits assumed): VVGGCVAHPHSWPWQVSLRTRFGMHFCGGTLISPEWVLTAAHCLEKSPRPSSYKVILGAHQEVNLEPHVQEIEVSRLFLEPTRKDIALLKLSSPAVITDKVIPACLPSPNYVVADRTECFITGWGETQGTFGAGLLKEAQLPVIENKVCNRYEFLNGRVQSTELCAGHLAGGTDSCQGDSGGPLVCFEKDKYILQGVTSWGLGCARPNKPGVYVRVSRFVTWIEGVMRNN
Procedure: as §4, §1, §2, §3

[1] = Kallikrein inhibitory activity, 1 nM activated human kallikrein, 500 μM H-Pro-Phe-Arg-AMC, 1 hour room temperature, read-out: Avg. IC50

Compound | IC50 (human plasma kallikrein; Inhibitor specificity table, read-out: Human Kallikrein IC50) [µM] | IC50 (Factor VIIa) [µM] | IC50 (Factor Xa) [µM] | IC50 (Factor XIa) [µM] | IC50 (Factor XIIa) [µM] | IC50 (tissue kallikrein KLK13) [µM] | IC50 (thrombin) [µM] | IC50 (plasmin) [µM] | IC50 (human plasma kallikrein; [1]) [µM]
CC[C@H](C)[C@@H]1NC(=O)[C@H](CO)NC(=O)[C@H](CCC(=O)O)NC(=O)[C@@H](NC(=O)[C@@H](N)CCSC)CSCc2cccc(c2)CSC[C@@H](C(=O)N[C@@H](CCCNC(=N)N)C(=O)N[C@H](C(N)=O)C(C)(C)C)NC1=O [Compound R2010, [mXylyl(2,6)]MCESICR-Tbg-NH2] (H-MCESICR[Tle]-NH2; linker 2-6 via mXylylene; N-terminus assumed) |  | > 100 | > 100 | > 15 | > 100 | > 100 | > 100 | > 100 | 0.0099
CSCC[C@H](N)C(=O)N[C@H]1CSCc2cccc(c2)CSC[C@@H](C(=O)N[C@@H](CCCNC(=N)N)C(=O)N[C@H](C(N)=O)C(C)C)NC(=O)[C@H](c2ccccc2)NC(=O)[C@H](CO)NC(=O)[C@H](CCC(=O)O)NC1=O [Compound R2012, [mXylyl(2,6)]MCES-Phg-CRV-NH2] (H-MCES[Phg]CRV-NH2; linker 2-6 via mXylylene; N-terminus assumed) |  |  |  | > 8.3 |  | > 100 |  |  | 0.0083
CCC[C@H](N)C(=O)N[C@H]1CSCc2cccc(c2)CSC[C@@H](C(=O)N[C@@H](CCCNC(=N)N)C(=O)N[C@H](C(N)=O)C(C)(C)C)NC(=O)[C@H](c2ccccc2)NC(=O)[C@@H]2CCCN2C(=O)[C@H](CCC(=O)O)NC1=O [Compound R2030, [mXylyl(2,6)]Nvl-CEP-Phg-CR-Tbg-NH2] (H-[Nva]CEP[Phg]CR[Tle]-NH2; linker 2-6 via mXylylene) |  | > 100 | > 100 | > 10.4 | > 100 | > 100 | > 100 | > 100 | 0.025
CSCC[C@H](N)C(=O)N[C@@H](CS)C(=O)N[C@@H](CC(N)=O)C(=O)N[C@@H](Cc1ccc(O)cc1)C(=O)N[C@@H](Cc1c[nH]c2ccccc12)C(=O)N[C@@H](CO)C(=O)N1CCC[C@H]1C(=O)N[C@@H](Cc1c[nH]c2ccccc12)C(=O)N[C@H](C(=O)N[C@@H](CCC(=O)O)C(=O)N[C@@H](CS)C(=O)N[C@@H](CO)C(=O)N[C@@H](C)C(N)=O)[C@@H](C)O [Compound R2104, MCNYWSPWTECSA-NH2] (H-MCNYWSPWTECSA-NH2) |  | > 100 | > 100 | > 5 | > 100 | > 100 | > 100 |  | 0.0034
Ac-SPWTECSA-NH2 [Compound R2120, Ac-SPWTECSA-NH2] |  |  |  |  |  |  |  |  | > 100
Ac-WSPWTECSA-NH2 [Compound R2119, Ac-WSPWTECSA-NH2] |  |  |  |  |  |  |  |  | > 100
Ac-YWSPWTECSA-NH2 [Compound R2118, Ac-YW SPWTECSA-NH2] |  |  |  |  |  |  |  |  | > 100
MCNYWSP-NH2 [Compound R2115, MCNYWSP-NH2] |  |  |  |  |  |  |  |  | > 17.3

Second part, the compound after the results:

IC50 (human plasma kallikrein; Inhibitor specificity table, read-out: Human Kallikrein IC50) [µM] | IC50 (Factor VIIa) [µM] | IC50 (Factor Xa) [µM] | IC50 (Factor XIa) [µM] | IC50 (Factor XIIa) [µM] | IC50 (tissue kallikrein KLK13) [µM] | IC50 (thrombin) [µM] | IC50 (plasmin) [µM] | IC50 (human plasma kallikrein; [1]) [µM] | Compound
0.025 | > 100 | > 7 | > 11.6 | > 100 | > 100 | > 100 | > 100 |  | CC[C@H](C)[C@@H]1NC(=O)[C@H](CO)NC(=O)[C@H](CCC(=O)O)NC(=O)[C@@H](NC(=O)[C@@H](N)CCSC)CSCc2cccc(c2)CSC[C@@H](C(=O)N[C@@H](CCCNC(=N)N)C(=O)N[C@H](C(N)=O)C(C)C)NC1=O [Compound R2006, [mXylyl(2,6)]MCESICRV-NH2] (H-MCESICRV-NH2; linker 2-6 via mXylylene)
 | > 100 | > 10 | > 9.1 | > 12.5 | > 16.4 | > 100 | > 21 | 0.0523 | CC[C@H](C)[C@@H]1NC(=O)[C@H](CO)N(C)C(=O)[C@H](CCC(=O)O)NC(=O)[C@@H](NC(=O)[C@@H](N)CCSC)CSCc2cccc(c2)CSC[C@@H](C(=O)N[C@@H](CCCNC(=N)N)C(=O)N[C@H](C(N)=O)C(C)C)NC1=O [Compound R2019, [mXylyl(2,6)]MCE-nMeS-ICRV-NH2] (H-MCE[NMeS]ICRV-NH2; linker 2-6 via mXylylene; N-terminus assumed)
 | > 100 | > 7 | > 12.1 | > 100 | > 100 | > 100 | > 100 | 0.019 | CC[C@H](C)[C@@H]1NC(=O)[C@H](CO)NC(=O)[C@H](CCC(=O)O)NC(=O)[C@@H](NC(C)=O)CSCc2cccc(c2)CSC[C@@H](C(=O)N[C@@H](CCCNC(=N)N)C(=O)N[C@H](C(N)=O)C(C)C)NC1=O [Compound R2023, [mXylyl(1,5)]Ac-CESICRV-NH2] (Ac-CESICRV-NH2; linker 1-5 via mXylylene)
 | > 100 | > 100 | > 13.8 | > 100 | > 100 | > 100 | > 100 |  | CC[C@H](C)[C@@H]1NC(=O)[C@H](CO)NC(=O)[C@@H](C)NC(=O)[C@@H](NC(C)=O)CSCc2cccc(c2)CSC[C@@H](C(=O)N[C@@H](CCCNC(=N)N)C(=O)N[C@H](C(N)=O)C(C)C)NC1=O [Compound R2047, [mXylyl(1,5)]Ac-C-a-SICRV-NH2] (Ac-C[dA]SICRV-NH2; linker 1-5 via mXylylene)
 |  |  |  |  |  |  |  | 0.0588 | Ac-ANYWSPWTAA-NH2 [Compound R2145, Ac-ANYWSPWTAA-NH2]
 |  |  |  |  |  |  |  | 0.0356 | Ac-CNYWSPWTEA-NH2 [Compound R2127, Ac-CNYWSPWTEA-NH2]
